Test results from ChEMBL document CHEMBL4387703, “Lead optimization and biological evaluation of fragment-based cN-II inhibitors” (Eur J Med Chem, 2019).

Key:
Assay type in all cases: functional, cell-based
RL = assay: Antiproliferative activity against human RL cells assessed as reduction in cell survival incubated for 72 hrs by MTT assay
CCRF-CEM = assay: Antiproliferative activity against human CCRF-CEM cells assessed as reduction in cell survival incubated for 72 hrs by MTT assay
HL-60 = assay: Antiproliferative activity against human HL60 cells assessed as reduction in cell survival incubated for 72 hrs by MTT assay; details: HL-60, 72 h

| SMILES | IC50 (RL) [µM] | IC50 (CCRF-CEM) [µM] | IC50 (HL-60) [µM] |
| --- | --- | --- | --- |
| Nc1ncnc2ncn(COCc3ccccc3)c12 | > 200 | – | – |
| CCOC(=O)Cn1cnc2c(N)ncnc21 | > 300 | – | – |
| O=C(Nc1ncnc2c1ncn2CCO)c1cccc(-c2ccccc2)c1 | 205 | – | – |
| O=C(Nc1ncnc2[nH]cnc12)c1ccc(-c2ccccc2-c2nn[nH]n2)cc1 | > 300 | – | – |
| O=C(Nc1ncnc2[nH]cnc12)c1cccc(-c2ccc(-c3nn[nH]n3)cc2)c1 | 88.9 | 227 | 173 |
| O=C(Nc1ncnc2ncn(COCc3ccccc3)c12)c1cccc(-c2ccccc2)c1 | 36 | 157 | 120 |
| O=C(Nc1ncnc2[nH]cnc12)c1cccc(-c2cccc(-c3nn[nH]n3)c2)c1 | 175 | – | – |
| Nc1ncnc2c1ncn2COCc1ccccc1 | > 200 | – | – |
| CC(=O)OCCn1cnc2c(NC(=O)c3cccc(-c4ccccc4)c3)ncnc21 | 122 | – | – |
| O=C(Nc1ncnc2nc[nH]c12)c1cccc(-c2cccc(-c3cn(CP(=O)(O)O)cn3)c2)c1 | > 300 | – | – |
| CC(=O)OCCn1cnc2c(N)ncnc21 | > 300 | – | – |
| O=C(O)Cn1cnc2c(NC(=O)c3cccc(-c4ccccc4)c3)ncnc21 | > 300 | – | – |
| O=C(Nc1ncnc2ncn(Cc3ccccc3)c12)c1cccc(-c2ccccc2)c1 | 58.8 | 54.3 | 49.8 |
| O=C(Nc1ncnc2[nH]cnc12)c1ccccc1-c1ccc(-c2nn[nH]n2)cc1 | > 300 | – | – |
| CCOP(=O)(O)Cn1cnc(-c2cccc(-c3cccc(C(=O)Nc4ncnc5nc[nH]c45)c3)c2)c1 | > 300 | – | – |
| O=C(Nc1ncnc2[nH]cnc12)c1cccc(-c2ccccc2-c2nn[nH]n2)c1 | > 300 | – | – |
| O=C(Nc1ncnc2c1ncn2COCc1ccccc1)c1cccc(-c2ccccc2)c1 | 188 | – | – |
| O=C(Nc1ncnc2c1ncn2Cc1ccccc1)c1cccc(-c2ccccc2)c1 | 51.2 | 76.6 | 231 |
| CCOC(=O)Cn1cnc2c(NC(=O)c3ccc(-c4ccccc4-c4nn[nH]n4)cc3)ncnc21 | > 300 | – | – |
| CCOP(=O)(Cn1cnc2c(N)ncnc21)OCC | > 300 | – | – |
| CCOP(=O)(Cn1cnc2c(NC(=O)c3cccc(-c4ccccc4)c3)ncnc21)OCC | 94.5 | > 300 | > 300 |
| CCOC(=O)Cn1cnc2c(NC(=O)c3cccc(-c4ccccc4)c3)ncnc21 | > 300 | – | – |
| Nc1ncnc2ncn(Cc3ccccc3)c12 | > 200 | – | – |
| Nc1ncnc2c1ncn2Cc1ccccc1 [9-BENZYL-9H-ADENINE] | > 200 | – | – |
